Holding throughout (assay type): biochemical, B. subtilis
Series [1] concerns the target T1, GR-N75L (Bacillus subtilis, UniProt P94556, N75L).
T1 sequence (P94556 1-272 N75L): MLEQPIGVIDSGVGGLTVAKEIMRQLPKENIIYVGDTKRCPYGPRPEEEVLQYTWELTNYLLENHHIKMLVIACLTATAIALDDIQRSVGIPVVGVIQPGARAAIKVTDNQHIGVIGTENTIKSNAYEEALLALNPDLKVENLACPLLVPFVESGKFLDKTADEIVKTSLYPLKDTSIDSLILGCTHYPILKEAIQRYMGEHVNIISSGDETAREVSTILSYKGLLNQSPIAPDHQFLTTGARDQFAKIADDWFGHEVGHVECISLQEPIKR
Description: Coupled-enzyme IC50 assay. To be noted: N75L mutation.

In series [2] the target is T2, GR-N75A (Bacillus subtilis, UniProt P94556, N75A).
T2 sequence (P94556 1-272 N75A): T1 sequence (P94556 1-272 N75L) with L75A
The experiment in a line: Coupled-enzyme IC50 assay. The settings on record: N75A mutation.

For series [3], the target named is T2, GR-N75A. Description: Steady-state kinetics of D- to L- racemization by circular dichroism at 220 nm. For orientation: Circular dichroism is the unequal absorption of left and right circularly polarised light.
Series [4] deals with T1, GR-N75L. Described as above.
Substrate in series [5]: N[C@H](CCC(=O)O)C(=O)O
Described as above. To be noted: other: GR-WT, 25 °C, pH 8.0.

The text below walks through data of paper PMC3782002 (Journal of Chemical Information and Modeling, 2013).

Numbering of substitutions follows the chain as printed.

With `O=S(=O)(O)c1nc2ccccc2[nH]1` [Compound 1, 1H-benzimidazole-2-sulfonic acid], the “increase in IC50 compared to the IC50 for wild-type GR” value is on record as 50% at GR-N75L [1] and 600% at GR-N75A [2].

For orientation: kcat means the maximal rate divided by the concentration of active sites. In general, Km refers to the substrate concentration at which the rate is half of its maximum. As to `N[C@H](CCC(=O)O)C(=O)O` [Compound 3, D-glutamate], the kcat on GR-N75A [3] amounted to 45.6 ± 1.9 s⁻¹; on GR-N75L [4] it was 0.15 ± 0.01 s⁻¹. The Km at GR-N75A [3] (25 °C) is 730 ± 90 µM; on GR-N75L [4] (25 °C), 490 ± 100 µM.

B1: GR-WT (Bacillus subtilis subsp. subtilis str. 168) (protein)
chain: T1 sequence (P94556 1-272 N75L) with L75N
A word on the kcat/Km: it is the second-order rate constant that governs catalysis at low substrate concentration. With B1, in series [5], the kcat came to 1.64 ± 0.03 s⁻¹ and the kcat/Km turned out to be 12600 ± 80 M⁻¹ s⁻¹.
